The results in this text go back to US20240182492A1, “AZAHETEROARYL COMPOUND, PREPARATION METHOD THEREFOR, AND APPLICATION THEREOF” (SHANGHAI BLUERAY BIOPHARMA CO., LTD., priority 2021, published 2024).

Test [1] has as its target T1, EED protein (full-length, His6 tag) binding to H3K27me3 polypeptide (Homo sapiens, UniProt O75530).
T1 construct: The full-length EED protein (441 amino acids) with His6 tag
As to the kind of experiment: AlphaScreen evaluation of blocking the binding of EED to H3K27Me3. The following applies: EED / biotinylated H3K27me3 peptide competition. On the procedure:
Example 53: Evaluation of the Effect of the Compound in Blocking the Binding of EED to H3K27Me3 by AlphaScreen (a-Screening) Method
First, compound solutions with different concentration gradients are prepared. Compound powder is dissolved in DMSO to form mother liquor. 1.5 μL of the compound mother liquor is taken to 198.5 μL reaction buffer (25 mM HEPES (pH 8.0), 50 mM NaCl, 0.015% Tween 20, 0.5% BSA) and the solution is mix uniformly, and then 3-fold gradient dilution is performed with the above buffer containing 0.75% DMSO. 9 different test concentrations are set for the same compound. 5 μL of compounds with different concentration gradients was taken to ProxiPlate-384 Plus, White detection plate (PerkinElmer, 6008280), and 2 parallel replicates are set for each concentration gradient.
Next, a binding blocking reaction is performed. The full-length EED protein (441 amino acids) with His6 tag is diluted to 60 nM with the above buffer, and the biotinylated polypeptide fragment H3K27me3 (amino acids 19-33) (Biotinylated-H3K27me3) is diluted to 75 nM with the same buffer. 5 μL of 75 nM peptide fragments and 5 μL of 60 nM protein are transferred to the testing wells containing the compound respectively. The testing plate is sealed with a film, and is incubated for 30 minutes at room temperature.
Finally, AlphaScreen method is used for detection. Before use, nickel chelate acceptor beads and streptavidin donor beads (Perkin Elmer, product number 6760619M) are mixed into the above reaction buffer at a ratio of 1:1, and then 5 μL of the above pre-mixed testing solution is added to each testing well. The final concentration of the donor beads and acceptor beads is 5 μg/mL. The testing plate is covered with tin foil and placed at room temperature in the dark for 1 hour. Signals are read using an AlphaScreen detector on a Spectra max i3. The AlphaScreen signal is normalized according to the readings obtained from the positive control (maximum signal control) and negative control (minimum signal control) to give the inhibition rate of different concentrations of the compound. After that, non-linear regression analysis was performed with GraphPad Prism 5, and dose-response equation Y=Bottom+(Top−Bottom)/(1+10^((Log IC50−X)*HillSlope)) is used to make an inhibition curve, obtaining the IC50 value of each compound. […]

For test [2], the system named is trimethylation level of histone H3K27 in G401 cells. Kind of test: ELISA (H3K27 trimethylation) analysis in G401 cells. The format is cell-based. Conditions: Homo sapiens, G-401, 72 h, H3K27me3 normalized by H3. On the procedure:
Example 54: ELISA (H3K27 Trimethylation) Analysis
Representative compounds of the present disclosure are diluted in DMSO with 3-fold gradient, and 10 concentration gradients are tested per compound. The maximum testing concentration is 10 μM. The compound is diluted 200-fold into G401 cells cultured in 96-well plates (the final concentration of DMSO is 0.5%). After the cells are cultured for 72 hours, the trimethylation level of histone H3K27 is detected by ELISA method.
Histone extraction: compound-treated cells in a 96-well plate are washed 3 times with 1×PBS (10×PBS buffer (80 g NaCl (Sigma, Product No. S3014), 2 g KCl (Sigma, Product No. 60128), 14.4 g Na2HAPO4 (Sigma, Product No. S5136) and 2.4 g KH2PO4 (Sigma, Product No. P9791) are added to 1 L water, pH to 7.4), and 100 μL of 0.4N HCl is added to each well. The 96-well plate is placed at 4° C. and gently shaken for 2 hours to lyse the cells. The cell lysate is then neutralized with 80 μL of neutralization buffer (0.5M disodium hydrogen phosphate, pH 12.5, 2.5 mM DTT; 1% cocktail (Sigma, Product No. P8340) (mixing the cell lysate and neutralization buffer thoroughly).
ELISA detection method: the cell lysates are transferred in parallel to two 384-well assay plates (PerkinElmer, OptiPlate-384HB, Product No. 6007290). One plate is used to detect the trimethylation level of H3K27, and the other plate is used to measure the level of H3. PBS is adjusted to a final volume of 50 μL/well. The wells are coated overnight at 4° C. On the next day, the solution in the wells was discarded. TBST buffer (1 xTBS (10×TBS: 24.2 g Tris (Sigma, Product No. T6066) and 80 g NaCl (Sigma, Product No. S3014) are added to 1 L water, and pH is adjusted to 7.6 with HCl) and 0.1% Tween-20) is used to wash it 5 times, and the water is dried on absorbent papers. 70 μL of blocking buffer (TBST, 5% BSA) is added to the coated reaction wells, and the wells are incubated for 1 hour at room temperature. The blocking buffer was discarded, and the primary antibody is added (30 μL/well). The required primary antibodies are diluted with blocking buffer, and the dilution ratios were as follows: anti-H3K27me3 antibody (Cell Signaling Technology, Product No. 9733), 1:2000 dilution; anti-H3 antibody (Cell Signaling Technology, Product No. 4499), 1:10000 dilution. After adding the primary antibody, the wells are incubated at room temperature for 1 hour. After washing with TBST for 5 times, the water are dried. The secondary antibody (30 μL/well) is added to each reaction well, and the wells are incubated at room temperature for 1 hour. Secondary antibody (anti-rabbit antibody (Jackson ImmunoResearch, Product No. 111-035-003)) is used after dilution 2000-fold in blocking buffer. After 1 hour, it is washed with TBST and dried. 30 μL of ECL substrate (Pierce, Product No. 34080) is added to each well and centrifuged for 30 seconds at 2000 rpm. Signal of each sample is detected using Molecular Devices, SpectraMax. Data processing: H3K27 methylation readings are first normalized by H3 signal. 0.500 DM8)-treated sample is used as a control, and the inhibition percentage of the compound is calculated. The data is fitted to a dose-response curve using the GraphPad prisim5 program, obtaining the IC50 values of the test compounds.
On the technique in general: An ELISA detects its analyte on a solid surface through an enzyme-linked reagent.

For test [3], the system named is B-cell non-Hodgkin lymphoma cells KARPAS-422. As to the kind of experiment: Cell proliferation analysis, KARPAS-422, 13 days, CellTiter-Glo. Conditions: Homo sapiens, KARPAS-422, 312 h, Karpas-422, 13 days. It is filed as cell-based, Human. On the procedure:
Example 55: Cell Proliferation Analysis
Human B-cell non-Hodgkin lymphoma cells KARPAS-422 S were cultured in culture flasks using standard cell culture conditions. The culture medium contains 15% fetal bovine serum (FBS, Invitrogen, product number 10099-141), 1% penicillin/streptomycin solution (P/S) RPMI-1640 (Invitrogen, product number 11875), and the culture flask is placed and cultured in a sterile incubator at 37° C., 95% relative humidity, and 5% CO2. In order to detect the effect of PRC2 inhibitors on cell proliferation, cells in the exponential growth phase were seeded into 96-well plates (Corning, product number 3904) at a density of 1×10^4 cells/well, and 100 μL of medium was added to each well. Subsequently, the compounds disclosed herein at different concentrations were added to the wells seeded with cells (9 concentration gradients were set for each compound, and the highest detection concentration was 10 μM, 3-fold gradient dilution), and 2 repeats in parallel were set for each treatment concentration. The final concentration of DMSO is 0.5%. Then the number of surviving cells was counted with Vi-CELL (Beckman Coulter) every 3-4 days. The cells counted each time were seeded into a new 96-well plate at the same density (1×10^4 cells/well). The wells were supplemented with fresh medium to 100 μL, and different concentrations of the compound were added at the same time. The cells were cultured until the 13th day, on which 100 μL of CellTiter-Glo (CellTiter-GloCellTiter-GloCellTiter-GloCTG) (Promega, Product No. G7573) was added to each well. The plate was placed for 10-20 minutes in the dark at room temperature, and Molecular Devices and SpectraMax i3X were used to read the luminous signal. The data were fitted to a dose-response curve using GraphPad prisim5 and the IC50 values of the tested compounds were obtained.
In general terms: ATP-based viability assays read luminescence as a measure of living cells.

T1 sequence (O75530 whole entry): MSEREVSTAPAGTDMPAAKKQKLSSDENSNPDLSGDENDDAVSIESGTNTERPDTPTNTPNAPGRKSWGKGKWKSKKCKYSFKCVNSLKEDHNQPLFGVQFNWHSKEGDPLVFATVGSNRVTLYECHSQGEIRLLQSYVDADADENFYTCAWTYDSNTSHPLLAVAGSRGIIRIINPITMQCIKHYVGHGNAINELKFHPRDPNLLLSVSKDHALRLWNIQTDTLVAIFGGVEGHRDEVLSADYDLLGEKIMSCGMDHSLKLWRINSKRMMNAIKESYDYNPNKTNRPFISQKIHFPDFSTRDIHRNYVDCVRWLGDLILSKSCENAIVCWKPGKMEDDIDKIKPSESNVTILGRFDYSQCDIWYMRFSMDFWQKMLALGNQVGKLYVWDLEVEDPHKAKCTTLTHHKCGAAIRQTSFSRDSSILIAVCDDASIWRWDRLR

Consider `CCC(O)(CC)c1ccc(-c2cnc(NCc3c(F)ccc4c3CCO4)n3cnnc23)c2ncnn12` [3-(8-(5-(((5-fluoro-2,3-dihydrobenzofuran-4-yl)methyl)amino)-[1,2,4]triazolo[4,3-c]pyrimidin-8-yl)-[1,2,4]triazolo[1,5-a]pyridin-5-yl)pentan-3-ol], for which the figures for the IC50 in test [1], in test [2] and in test [3] were 0.0035 µM, 0.0024 µM and 0.0077 µM, respectively.
